Patent US20240245753A1, “METHODS OF REDUCING SIDE EFFECTS OF ANTI-CD30 ANTIBODY DRUG CONJUGATE THERAPY” (priority 2017, published 2024)
Where two headings read alike, the source gives them in different places.

B1: G-CSF (protein, UniProt P09919 31-207, looked up)
Granulocyte …: TPLGPASSLPQSFLLKCLEQVRKIQGDGAALQEKLVSECATYKLCHPEELVLLGHSLGIPWAPLSSCPSQALQLAGCLSQLHSGLFLYQGLLQALEGISPELGPTLDTLQLDVADFATTIWQQMEELGMAPALQPTQGAMPAFASAFQRRAGGVLVASHLQSFLEVSYRVLRHLAQP

Tests used:
[1] = tested on: newly diagnosed CD30-positive mature T- and NK-cell neoplasms, including sALCL; settings: given concomitantly with CHP; cited from earlier work
[2] = tested on: relapsed or refractory sALCL; settings: cited from earlier work
[3] = Randomized, double-blind Phase 3 clinical trial of A+CHP versus CHOP: safety (adverse events, exposure); settings: human, in vivo
Description: TRIAL DESIGN: Approximately 450 patients (approximately 225 patients per treatment arm) are randomized in this study. The standard of care in this patient population consists of 6-8 cycles of CHOP chemotherapy. Patients are randomized in a 1:1 manner to receive 21-day cycles of treatment in 1 of the following 2 treatment groups: Standard-of-care arm: 6-8 cycles of CHOP; or Experimental arm: 6-8 cycles of brentuximab vedotin plus CHP (A+CHP). A target of 8 cycles of study treatment are administered, per investigator decision, based on patient-specific characteristics, including stage of disease and IPI risk score.
Safety is evaluated by the incidence of adverse events, using the Medical Dictionary for Regulatory Activities (MedDRA; v19.0), and National Cancer Institute Common Terminology Criteria for Adverse Events v4.03, and by changes in vital signs, and clinical laboratory results.
All efficacy evaluations are conducted using the intent-to-treat population unless otherwise specified. Safety is analyzed in patients who received at least one dose of study drug (safety population).
Subjects were randomly assigned in a 1:1 ratio to receive 21-day cycles of either A+CHP or CHOP for 6 or 8 cycles, with the number of cycles determined at the outset and based on investigator discretion. […]

Molecule | maximum tolerated dose [1] [mg/kg] | median duration of response ([2]; 1.8 mg/kg every 3 weeks) [months] | objective response (CR+PR) rate ([2]; 1.8 mg/kg every 3 weeks) [%] | patients achieving a CR ([2]; 1.8 mg/kg every 3 weeks) [%] | tolerability ([2]; manageable side effects) | median duration of response ([2]; subset of patients who achieved a CR) [months] | effect of primary prophylactic G-CSF on febrile neutropenia [3]
brentuximab vedotin | 1.8 | 12.6 | 86 | 57 | generally well tolerated | 13.2 | 
B1 |  |  |  |  |  |  | reduced the incidence and severity
